This note sets out measurements from patent US11878966B2, “Substituted 4-benzyl and 4-benzoyl piperidine derivates” (89BIO LTD, priority 2015, dated 2024).

The target in this test is T1, recombinant human baculovirus-expressed GST-tagged FASN (Homo sapiens, UniProt P49327).
T1 construct: GST; host or cells: baculovirus expression system (insect cells implied)
The test is described as follows: FASN enzyme activity assay: fluorescence-based detection of CoA with CPM. Format: biochemical. To be noted: 5 nM FASN, 150 μM NADPH, 10 μM acetyl-CoA, 25 μM malonyl-CoA, 90 minutes incubation. An excerpt: FASN Enzyme activity may be determined by detecting coenzyme A (CoA), a product of FASN-catalyzed synthesis of palmitate from acetyl-CoA and malonyl-CoA with NADPH as a cofactor. The assay is fluorescence-based and measures the interaction of free CoA with 7-diethylamino-3-(4′-malemimidylphenyl)-4-methylcoumarin (CPM; Life Technologies, CA) as described in Chung et al (2008). The coumarin derivative CPM contains a thiol-reactive maleimide that becomes fluorescent upon interaction with the sulfhydryl group of CoA.
For the example compounds described herein, the reaction was performed in 384-well low volume non-binding platews (Corning, NY) using recombinant human baculovirus-expressed GST-tagged FASN. The 20-μL assay mixture contained 50 mM HEPES (pH 7.5), 5 nM FASN, 150 μM NADPH (Sigma, St. Louis, MO), 10 μM acetyl-CoA (Sigma), 25 μM malonyl-CoA (Sigma) and test compound [diluted in dimethyl sulfoxide (DMSO); 0.5% DMSO final in assay after 100 nL addition]. See, Chung et al.; “A fluorescence-based thiol quantification assay for ultra-high-throughput screening for inhibitors of coenzyme A production,” Assay Drug Dev Tech 2008; 6:361-374.
The reaction was initiated by adding malonyl-CoA, followed by incubation for 90 minutes at […]. A stock solution of the CPM reagent was prepared in DMSO al 66 μM and stored at […]. To detect CoA produced in the FASN reaction, the CPM stock was diluted to 50 μM in 70% ethanol and added at 4 μL/well to the assay place. The reaction mixture was then incubated for 30 minutes. Fluorescence was measured using the EnVision™ 2102 multi-label plate reader (PerkinElmer, Waltham, MA) utilizing a general dual mirror, a 390 nm excitation filter and a 530 nm emission filter. Data analysis was performed using ActivityBase (IDBS, Guilford, UK). IC50 values were calculated by plotting the percent inhibition versus log 10 of the concentration of the compound, and fitting to the nonlinear regression sigmoidal dose-response (variable slope) equation in XLFit (IDBS).

The structures appear in SMILES notation.

T1 sequence (P49327 whole entry): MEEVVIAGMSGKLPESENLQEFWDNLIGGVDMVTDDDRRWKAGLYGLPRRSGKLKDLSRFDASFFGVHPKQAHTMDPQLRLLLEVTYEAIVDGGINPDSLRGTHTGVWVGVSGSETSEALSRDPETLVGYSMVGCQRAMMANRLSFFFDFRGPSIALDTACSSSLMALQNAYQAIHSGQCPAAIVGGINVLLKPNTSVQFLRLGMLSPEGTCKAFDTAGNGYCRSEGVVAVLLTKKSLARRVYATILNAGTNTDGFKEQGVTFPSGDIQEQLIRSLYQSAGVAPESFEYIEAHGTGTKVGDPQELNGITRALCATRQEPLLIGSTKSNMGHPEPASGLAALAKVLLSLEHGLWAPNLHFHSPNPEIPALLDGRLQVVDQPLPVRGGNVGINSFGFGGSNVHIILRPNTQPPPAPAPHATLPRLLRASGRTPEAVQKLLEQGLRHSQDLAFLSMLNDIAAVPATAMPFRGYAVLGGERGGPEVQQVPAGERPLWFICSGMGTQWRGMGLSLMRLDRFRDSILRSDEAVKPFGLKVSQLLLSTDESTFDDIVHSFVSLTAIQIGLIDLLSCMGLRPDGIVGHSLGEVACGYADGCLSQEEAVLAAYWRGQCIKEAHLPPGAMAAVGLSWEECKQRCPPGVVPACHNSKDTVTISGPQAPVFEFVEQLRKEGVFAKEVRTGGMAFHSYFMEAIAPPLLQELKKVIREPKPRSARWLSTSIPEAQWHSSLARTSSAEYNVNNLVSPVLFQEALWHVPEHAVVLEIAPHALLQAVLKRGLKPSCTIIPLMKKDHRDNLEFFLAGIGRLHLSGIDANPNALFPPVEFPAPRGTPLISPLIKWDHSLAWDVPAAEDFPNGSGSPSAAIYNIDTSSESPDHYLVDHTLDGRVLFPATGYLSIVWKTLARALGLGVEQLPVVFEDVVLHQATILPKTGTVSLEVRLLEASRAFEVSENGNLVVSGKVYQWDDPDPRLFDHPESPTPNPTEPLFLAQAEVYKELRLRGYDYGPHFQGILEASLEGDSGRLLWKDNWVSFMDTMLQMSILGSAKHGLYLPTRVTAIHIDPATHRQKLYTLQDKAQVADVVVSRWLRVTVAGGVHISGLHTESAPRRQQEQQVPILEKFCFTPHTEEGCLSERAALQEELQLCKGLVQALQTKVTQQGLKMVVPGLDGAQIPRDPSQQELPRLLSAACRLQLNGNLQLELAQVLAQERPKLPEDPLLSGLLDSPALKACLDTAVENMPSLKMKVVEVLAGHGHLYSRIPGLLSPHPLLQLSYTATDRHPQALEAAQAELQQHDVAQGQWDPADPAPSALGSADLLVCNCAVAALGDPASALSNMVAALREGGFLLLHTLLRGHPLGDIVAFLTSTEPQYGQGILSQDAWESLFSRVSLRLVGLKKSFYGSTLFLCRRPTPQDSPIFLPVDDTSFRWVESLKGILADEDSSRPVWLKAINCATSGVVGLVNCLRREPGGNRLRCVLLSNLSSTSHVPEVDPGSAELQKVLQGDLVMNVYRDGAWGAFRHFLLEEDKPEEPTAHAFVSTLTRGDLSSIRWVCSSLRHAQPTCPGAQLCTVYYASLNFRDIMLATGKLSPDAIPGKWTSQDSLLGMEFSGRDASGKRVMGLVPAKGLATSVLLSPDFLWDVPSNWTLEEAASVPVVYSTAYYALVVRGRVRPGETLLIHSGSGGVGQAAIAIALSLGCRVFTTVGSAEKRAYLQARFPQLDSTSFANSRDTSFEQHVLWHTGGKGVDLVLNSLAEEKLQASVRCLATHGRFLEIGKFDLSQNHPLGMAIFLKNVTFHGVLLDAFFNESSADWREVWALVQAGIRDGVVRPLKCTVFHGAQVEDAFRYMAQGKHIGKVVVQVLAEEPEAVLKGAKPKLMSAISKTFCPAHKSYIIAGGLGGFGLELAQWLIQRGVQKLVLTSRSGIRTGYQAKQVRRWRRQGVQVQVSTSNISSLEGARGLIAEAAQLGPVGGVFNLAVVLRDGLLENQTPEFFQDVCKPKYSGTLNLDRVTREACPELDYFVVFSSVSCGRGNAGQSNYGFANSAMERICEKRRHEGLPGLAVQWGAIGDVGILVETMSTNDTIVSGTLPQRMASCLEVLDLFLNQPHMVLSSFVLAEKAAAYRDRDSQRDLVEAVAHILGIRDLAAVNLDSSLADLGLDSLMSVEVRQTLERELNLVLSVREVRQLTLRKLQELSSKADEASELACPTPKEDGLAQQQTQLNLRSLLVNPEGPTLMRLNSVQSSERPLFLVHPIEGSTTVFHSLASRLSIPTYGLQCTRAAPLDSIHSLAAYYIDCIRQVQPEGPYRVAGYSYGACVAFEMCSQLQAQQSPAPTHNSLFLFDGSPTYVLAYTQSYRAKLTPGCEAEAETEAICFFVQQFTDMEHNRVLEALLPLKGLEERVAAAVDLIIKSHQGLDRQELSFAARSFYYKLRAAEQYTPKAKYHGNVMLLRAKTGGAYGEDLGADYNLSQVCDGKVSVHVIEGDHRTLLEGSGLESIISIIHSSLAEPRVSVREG

A word on the IC50: it is the midpoint of a concentration-inhibition curve. Regarding `COc1c(-c2ccc(CC3CCN(C(=O)[C@H]4CCCO4)CC3)cc2)ccc2cccnc12` [Example 34, {4-[4-(8-Methoxyquinolin-7-yl)-benzyl]-piperidin-1-yl}-(R)-tetrahydrofuran-2-yl-methanone], the IC50 fell in the range of 1 to 99 nM.
The same measure for `CCC(=O)N1CCC(Cc2ccc(-c3ccc4c(C)nccc4c3)cc2)CC1` [Example 35, 1-{4-[4-(1-methylisoquinolin-6-yl)-benzyl]-piperidin-1-yl}-propan-1-one]: 1 to 99 nM; for `Cc1nccc2cc(-c3ccc(CC4CCN(C(=O)C5CC5)CC4)cc3)ccc12` [Example 36, Cyclopropyl-{4-[4-(1-methyl-isoquinolin-6-yl)-benzyl]-piperidin-1-yl}-methanone]: 1 to 99 nM.
Then `Cc1nccc2cc(-c3ccc(CC4CCN(C(=O)[C@H]5CCCO5)CC4)cc3)ccc12` [Example 37, {4-[4-(1-methylisoquinolin-6-yl)-benzyl]-piperidin-1-yl}-(R)-tetrahydro-furan-2-yl-methanone], with 1 to 99 nM; and `CCC(=O)N1CCC(C(C)c2ccc(-c3cnc4ccccc4c3)cc2)CC1` (stereo not shown) [Example 39, 1-(4-(1-(4-(quinolin-3-yl)phenyl)ethyl)piperidin-1-yl)propan-1-one], with 1 to 99 nM; and `CCC(=O)N1CCC(C(C)c2ccc(-c3ccc4cccnc4c3)cc2)CC1` (stereo not shown) [Example 42, 1-{4-[1-(4-Quinolin-7-yl-phenyl)-ethyl]-piperidin-1-yl}-propan-1-one], with 1 to 99 nM.
Then `CCC(=O)N1CCC(C(N)c2ccc(-c3cnc4ccccc4c3)cc2)CC1` (stereo not shown) [Example 43, 1-{4-[amino-(4-quinolin-3-yl-phenyl)-methyl]-piperidin-1-yl}-propan-1-one], with 1000 to 10000 nM.
In the case of `O=C(C1CC1)N1CCC(C2(c3ccc(-c4cnc5ccccc5c4)cc3)CC2)CC1` [Example 44, Cyclopropyl-{4-[1-(4-quinolin-3-yl-phenyl)-cyclopropyl]-piperidin-1-yl}-methanone], the IC50 is 100 to 999 nM.
The same measure for `O=C(C1CC1)N1CCC(C2(c3ccc(-c4ccc5cccnc5c4)cc3)CC2)CC1` [Example 45, Cyclopropyl-{4-[1-(4-quinolin-7-yl-phenyl)-cyclopropyl]-piperidin-1-yl}-methanone]: 100 to 999 nM; for `CCC(=O)N1CCC(/C(=N\OC)c2ccc(-c3cnc4ccccc4c3)cc2)CC1` [Example 46, 1-{4-[[(E:Z)-Methoxyimino]-(4-quinolin-3-yl-phenyl)-methyl]-piperidin-1-yl}-propan-1-one]: 1 to 99 nM; for `CCC(=O)N1CCC(C(CC)c2ccc(-c3cnc4ccccc4c3)cc2)CC1` (stereo not shown) [Example 47, 1-{4-[1-(4-Quinolin-3-yl-phenyl)-propyl]-piperidin-1-yl}-propan-1-one]: 1 to 99 nM.
Then `CCC(=O)N1CCC(C(c2ccc(-c3cnc4ccccc4c3)cc2)C2CC2)CC1` (stereo not shown) [Example 48, 1-{4-[Cyclopropyl-(4-quinolin-3-yl-phenyl)-methyl]-piperidin-1-yl}-propan-1-one], with 100 to 999 nM; and `O=C(c1ccc(-c2cnc3ccccc3c2)cc1)C1CCN(C(=O)[C@H]2CCCO2)CC1` [Example 49, [4-(4-Quinolin-3-yl-benzoyl)-piperidin-1-yl]-(R)-tetrahydrofuran-2-yl-methanone], with 1 to 99 nM.
The same measure for `CC(c1ccc(-c2ccc3cccnc3c2)cc1)C1CCN(C(=O)[C@H]2CCCO2)CC1` (stereo partly drawn) [Example 51, {4-[1-(4-Quinolin-7-yl-phenyl)-ethyl]-piperidin-1-yl}-(R)-tetrahydrofuran-2-yl-methanone]: 1 to 99 nM.
Turning to `CC(c1ccc(-c2cnc3ccccc3c2)cc1)C1CCN(C(=O)[C@H]2CCCO2)CC1` (stereo partly drawn) [Example 52, {4-[1-(4-Quinolin-3-yl-phenyl)-ethyl]-piperidin-1-yl}-(R)-tetrahydrofuran-2-yl-methanone], the IC50 was 1 to 99 nM.
Take `CCC(=O)N1CCC(C(NC(C)=O)c2ccc(-c3cnc4ccccc4c3)cc2)CC1` (stereo not shown) [Example 53, N-[(1-Propionylpiperidin-4-yl)-(4-quinolin-3-yl-phenyl)-methyl]-acetamide]: the IC50 lay within 1000 to 10000 nM.
On to `CCCC(c1ccc(-c2cnc3ccccc3c2)cc1)C1CCN(C(=O)CC)CC1` (stereo not shown) [Example 54, 1-{4-[1-(4-Quinolin-3-yl-phenyl)-butyl]-piperidin-1-yl}-propan-1-one], for which the IC50 was in the range of 1 to 99 nM.
Then `CCC(=O)N1CCC(C(NC=O)c2ccc(-c3cnc4ccccc4c3)cc2)CC1` (stereo not shown) [Example 55, N-[(1-Propionylpiperidin-4-yl)-(4-quinolin-3-yl-phenyl)-methyl]-formamide], with 1000 to 10000 nM; and `CCC(=O)N1CCC(C)(C(=O)c2ccc(-c3cnc4ccccc4c3)cc2)CC1` [Example 56, 1-[4-Methyl-4-(4-quinolin-3-yl-benzoyl)-piperidin-1-yl]-propan-1-one], with 100 to 999 nM.
Turning to `CC(c1ccc(-c2cnc3ccccc3c2)cc1)C1CCN(C(=O)OC(C)(C)C)CC1` (stereo not shown) [Example 57, 4-[1-(4-quinolin-3-yl-phenyl)-ethyl]-piperidine-1-carboxylic Acid t-Butyl Ester], the IC50 was 1000 to 10000 nM.
On to `CC(c1ccc(-c2cnc3ccccc3c2)cc1)C1CCN(C(=O)C2CC2)CC1` (stereo not shown) [Example 58, Cyclopropyl-{4-[1-(4-quinolin-3-yl-phenyl)-ethyl]-piperidin-1-yl}-methanone], for which the IC50 is 1 to 99 nM.
In the case of `CCC(=O)N1CCC(C)(Cc2ccc(-c3cnc4ccccc4c3)cc2)CC1` [Example 59, 1-[4-Methyl-4-(4-quinolin-3-yl-benzyl)-piperidin-1-yl]-propan-1-one], the IC50 lay within 100 to 999 nM.
The same measure for `CC(c1ccc(-c2cnc3ccccc3c2)cc1)C1CCN(C=O)CC1` (stereo not shown) [Example 60, 4-[1-(4-Quinolin-3-yl-phenyl)-ethyl]-piperidine-1-carbaldehyde]: 1000 to 10000 nM.
Then `CCC(=O)N1CCC(C(c2ccc(-c3cnc4ccccc4c3)cc2)C(C)C)CC1` (stereo not shown) [Example 61, 1-{4-[2-Methyl-1-(4-quinolin-3-yl-phenyl)-propyl]-piperidin-1-yl}-propan-1-one], with 100 to 999 nM; and `CCC(=O)N1CCC(C(C)c2ccc(-c3ccc4cccnc4c3C)cc2)CC1` (stereo not shown) [Example 62, 1-(4-{1-[4-(8-methylquinolin-7-yl)-phenyl]-ethyl}-piperidin-1-yl)-propan-1-one], with 1 to 99 nM.
As for `Cc1c(-c2ccc(C(C)C3CCN(C(=O)C4CC4)CC3)cc2)ccc2cccnc12` (stereo not shown) [Example 63, Cyclopropyl-(4-{1-[4-(8-methylquinolin-7-yl)-phenyl]-ethyl}-piperidin-1-yl)-methanone], the IC50 was 1 to 99 nM.
The same measure for `CCC(=O)N1CCC(C(C)c2ccc(-c3ccc4cccnc4c3OC)cc2)CC1` (stereo not shown) [Example 64, 1-(4-{1-[4-(8-Methoxyquinolin-7-yl)-phenyl]-ethyl}-piperidin-1-yl)-propan-1-one]: 1 to 99 nM.
The same measure for `CCC(=O)N1CCC(C(C)c2ccc(-c3cnc4ccccc4c3C)cc2)CC1` (stereo not shown) [Example 65, 1-(4-{1-[4-(4-Methylquinolin-3-yl)-phenyl]-ethyl}-piperidin-1-yl)-propan-1-one]: 1 to 99 nM; for `COc1c(-c2ccc(C(C)C3CCN(C(=O)C4CC4)CC3)cc2)ccc2cccnc12` (stereo not shown) [Example 66, Cyclopropyl-(4-{1-[4-(8-methoxyquinolin-7-yl)-phenyl]-ethyl}-piperidin-1-yl)-methanone]: 1 to 99 nM.
Then `CCC(=O)N1CCC(C(C)c2ccc(-c3ccc4cccnc4c3Cl)cc2)CC1` (stereo not shown) [Example 72, 1-(4-{1-[4-(8-chloroquinolin-7-yl)-phenyl]-ethyl}-piperidin-1-yl)-propan-1-one], with 1 to 99 nM; and `CC(c1ccc(-c2ccc3cccnc3c2Cl)cc1)C1CCN(C(=O)C2CC2)CC1` (stereo not shown) [Example 73, (4-{1-[4-(8-Chloroquinolin-7-yl)-phenyl]-ethyl}-piperidin-1-yl)-cyclopropylmethanone], with 1 to 99 nM.
Take `CCC(=O)N1CCC(C(C)c2ccc(-c3cnc4ccccc4c3Cl)cc2)CC1` (stereo not shown) [Example 75, 1-(4-{1-[4-(4-Chloroquinolin-3-yl)-phenyl]-ethyl}-piperidin-1-yl)-propan-1-one]: the IC50 was in the range of 1 to 99 nM.
Then `CC(c1ccc(-c2cnc3ccccc3c2Cl)cc1)C1CCN(C(=O)C2CC2)CC1` (stereo not shown) [Example 76, (4-{1-[4-(4-Chloroquinolin-3-yl)-phenyl]-ethyl}-piperidin-1-yl)-cyclopropylmethanone], with 1 to 99 nM.
Then `Cc1nccc2cc(-c3ccc(C4(C5CCN(C(=O)[C@H]6CCCO6)CC5)CC4)cc3)ccc12` [Example 78, (4-{1-[4-(1-Methylisoquinolin-6-yl)-phenyl]-cyclopropyl}-piperidin-1-yl)-(R)-tetrahydrofuran-2-yl-methanone], with 1000 to 10000 nM.
